Measurements: publication PMC10408170, “Synthesis, DFT and molecular docking of novel (Z)-4-bromo-N-(4-butyl-3 (quinolin-3-yl)thiazol-2(3H)-ylidene)benzamide as elastase inhibitor” (BMC Chemistry, 2023)

Target: T1, Elastase from porcine pancreas (Sus scrofa, UniProt P00772)
T1 construct: gene CELA1
Experiment: enzyme inhibition assay, p-nitroaniline release from N-succinyl-Ala-Ala-Ala-p-nitroanilide
Type: biochemical

T1 sequence (P00772 27-266): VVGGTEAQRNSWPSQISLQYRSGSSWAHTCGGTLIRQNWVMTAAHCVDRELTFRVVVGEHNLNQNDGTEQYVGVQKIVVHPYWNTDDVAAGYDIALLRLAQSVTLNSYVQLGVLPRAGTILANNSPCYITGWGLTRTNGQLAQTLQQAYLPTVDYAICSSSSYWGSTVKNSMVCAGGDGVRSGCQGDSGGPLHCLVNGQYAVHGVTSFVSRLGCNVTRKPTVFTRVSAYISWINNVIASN

Compound `CCCCc1cs/c(=N\C(=O)c2ccc(Br)cc2)n1-c1cnc2ccccc2c1` [compound 6, (Z)-4-bromo-N-(4-butyl-3-(quinolin-3-yl)thiazol-2(3H)-ylidene)benzamide] has an IC50 of 1.21 µM.
